Reference: ChEMBL document CHEMBL1147420, “Synthesis and biological evaluation of novel coumarin derivatives with a 7-azomethine linkage” (2004)

What was measured:
Assay type in all cases: functional
[1] = Interaction percent with DPPH after 20 minutes was determined at 0.5 mM concentration
[2] = Interaction percent with DPPH after 20 minutes was determined at 0.2 mM concentration
[3] = Interaction percent with DPPH after 60 minutes was determined at 0.5 mM concentration
[4] = target: Chymotrypsinogen B (Homo sapiens) (UniProt P17538); assay: Compound was evaluated for in vitro inhibition of chymotrypsinogen acting as esterase at 1 mM concentration
Sequence of Chymotrypsinogen B (Homo sapiens) (P17538 34-164 limits assumed, other chains not shown): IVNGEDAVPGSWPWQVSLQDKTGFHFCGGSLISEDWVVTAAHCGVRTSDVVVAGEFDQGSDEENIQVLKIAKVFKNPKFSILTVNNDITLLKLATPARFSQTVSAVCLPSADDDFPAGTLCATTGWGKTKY
Sequence of Chymotrypsinogen B (Homo sapiens) (P17538 167-263 limits assumed, other chains not shown): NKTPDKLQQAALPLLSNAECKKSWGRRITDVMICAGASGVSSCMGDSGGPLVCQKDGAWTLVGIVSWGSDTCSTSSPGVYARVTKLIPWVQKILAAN

[5] = Interaction percent with DPPH after 60 minutes was determined at 0.2 mM concentration
[6] = target: T1, Seed linoleate 13S-lipoxygenase-1 (Glycine max) (UniProt P08170); assay: Compound was evaluated for in vitro inhibition of soybean lipoxygenase at 0.1 mM concentration
T1 sequence (whole entry): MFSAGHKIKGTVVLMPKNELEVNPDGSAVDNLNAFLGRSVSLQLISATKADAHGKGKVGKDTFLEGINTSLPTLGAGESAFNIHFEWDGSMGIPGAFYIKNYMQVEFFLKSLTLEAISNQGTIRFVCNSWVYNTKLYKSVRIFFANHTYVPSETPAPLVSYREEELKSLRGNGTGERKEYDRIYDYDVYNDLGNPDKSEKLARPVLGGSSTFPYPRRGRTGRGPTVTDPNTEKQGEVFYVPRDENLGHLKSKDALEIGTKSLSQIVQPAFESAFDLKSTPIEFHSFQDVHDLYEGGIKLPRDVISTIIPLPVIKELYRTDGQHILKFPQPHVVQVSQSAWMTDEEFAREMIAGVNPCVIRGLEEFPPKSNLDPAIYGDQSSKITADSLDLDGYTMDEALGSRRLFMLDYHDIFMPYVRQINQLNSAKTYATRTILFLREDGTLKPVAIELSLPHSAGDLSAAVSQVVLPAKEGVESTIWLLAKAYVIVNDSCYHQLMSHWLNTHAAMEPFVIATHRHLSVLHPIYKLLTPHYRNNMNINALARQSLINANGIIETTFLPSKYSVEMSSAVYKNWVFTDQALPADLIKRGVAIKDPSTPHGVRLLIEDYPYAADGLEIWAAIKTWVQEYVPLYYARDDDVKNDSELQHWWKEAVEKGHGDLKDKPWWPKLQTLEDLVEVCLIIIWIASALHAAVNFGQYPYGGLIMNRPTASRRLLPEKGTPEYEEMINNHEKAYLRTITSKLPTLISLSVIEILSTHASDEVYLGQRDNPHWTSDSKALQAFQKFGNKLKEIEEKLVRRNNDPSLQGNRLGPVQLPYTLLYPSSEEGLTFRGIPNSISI

[7] = target: Serine protease 1 (Homo sapiens) (UniProt P07477); assay: Compound was evaluated for in vitro inhibition of trypsin acting as esterase at 1 mM concentration
Sequence of Serine protease 1 (Homo sapiens) (P07477 whole entry): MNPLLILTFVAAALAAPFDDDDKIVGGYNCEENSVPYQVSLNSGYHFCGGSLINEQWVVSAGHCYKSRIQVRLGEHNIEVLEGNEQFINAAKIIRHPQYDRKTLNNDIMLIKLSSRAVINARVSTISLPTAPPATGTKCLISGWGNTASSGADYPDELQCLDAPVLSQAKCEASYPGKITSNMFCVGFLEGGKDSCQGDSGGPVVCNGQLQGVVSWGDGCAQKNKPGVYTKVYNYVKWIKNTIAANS

[8] = target: Chymotrypsinogen B (Homo sapiens) (UniProt P17538); assay: Compound was evaluated for in vitro inhibition of chymotrypsinogen induced proteolysis at 1 mM concentration
[9] = Competition percent of compound with DMSO for hydroxyl radical was determined at 0.1 mM concentration
[10] = target: Chymotrypsinogen B (Homo sapiens) (UniProt P17538); assay: Compound was evaluated for in vitro inhibition of chymotrypsinogen induced proteolysis at 0.1 mM concentration
[11] = Competition percent of compound with DMSO for hydroxyl radical was determined at 0.01 mM concentration
[12] = target: T2, Beta-glucuronidase (Bos taurus) (UniProt A3KMY8); assay: Compound was evaluated for in vitro inhibition of beta-glucuronidase at 1 mM concentration
T2 sequence (whole entry): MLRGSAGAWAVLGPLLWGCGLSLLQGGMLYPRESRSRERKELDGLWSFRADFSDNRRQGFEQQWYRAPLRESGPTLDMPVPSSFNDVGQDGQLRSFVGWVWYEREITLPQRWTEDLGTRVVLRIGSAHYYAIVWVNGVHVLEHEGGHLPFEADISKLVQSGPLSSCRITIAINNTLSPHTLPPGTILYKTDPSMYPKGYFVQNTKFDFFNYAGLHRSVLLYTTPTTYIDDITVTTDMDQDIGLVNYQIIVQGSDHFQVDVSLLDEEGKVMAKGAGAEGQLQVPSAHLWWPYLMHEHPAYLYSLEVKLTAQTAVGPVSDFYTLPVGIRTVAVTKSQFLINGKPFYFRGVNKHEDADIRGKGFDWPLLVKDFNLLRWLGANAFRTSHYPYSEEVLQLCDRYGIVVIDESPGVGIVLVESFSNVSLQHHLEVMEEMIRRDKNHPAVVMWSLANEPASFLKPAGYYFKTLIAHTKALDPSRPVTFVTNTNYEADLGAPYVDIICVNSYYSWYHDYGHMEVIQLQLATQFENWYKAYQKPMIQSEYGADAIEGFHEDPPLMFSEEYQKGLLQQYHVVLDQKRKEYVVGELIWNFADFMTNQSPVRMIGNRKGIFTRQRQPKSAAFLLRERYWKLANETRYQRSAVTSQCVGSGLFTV

[13] = target: Chymotrypsinogen B (Homo sapiens) (UniProt P17538); assay: Compound was evaluated for in vitro inhibition of chymotrypsinogen acting as esterase at 0.1 mM concentration
[14] = Interaction percent with DPPH after 60 minutes was determined at 0.1 mM concentration
[15] = target: Serine protease 1 (Homo sapiens) (UniProt P07477); assay: Compound was evaluated for in vitro inhibition of trypsin acting as esterase at 0.1 mM concentration
[16] = target: T2, Beta-glucuronidase (Bos taurus); assay: Compound was evaluated for in vitro inhibition of beta-glucuronidase at 0.1 mM concentration; […]
[17] = Interaction percent with DPPH after 20 minutes was determined at 0.1 mM concentration
[18] = Compound was evaluated for percent inhibition of carrageenan induced rat paw edema at 0.005 mmol/kg
[19] = target: Serine protease 1 (Homo sapiens) (UniProt P07477); assay: Compound was evaluated for in vitro inhibition of trypsin induced proteolysis at 0.1 mM concentration
[20] = target: Serine protease 1 (Homo sapiens) (UniProt P07477); assay: Compound was evaluated for in vitro inhibition of trypsin induced proteolysis at 1 mM concentration
[21] = target: T1, Seed linoleate 13S-lipoxygenase-1 (Glycine max); assay: Compound was evaluated for in vitro inhibition of soybean lipoxygenase at 1 mM concentration
[22] = target: T2, Beta-glucuronidase (Bos taurus); assay: Compound was evaluated for in vitro inhibition of beta-glucuronidase at 0.1 mM concentration
[23] = target: T1, Seed linoleate 13S-lipoxygenase-1 (Glycine max); assay: Compound was evaluated for in vitro inhibition of soybean lipoxygenase at 0.1 mM concentration; no action
[24] = target: Chymotrypsinogen B (Homo sapiens) (UniProt P17538); assay: Compound was evaluated for in vitro inhibition of chymotrypsinogen induced proteolysis at 0.1 mM concentration; no action
[25] = target: Serine protease 1 (Homo sapiens) (UniProt P07477); assay: Compound was evaluated for in vitro inhibition of trypsin induced proteolysis at 0.1 mM concentration; no action
[26] = Competition percent of compound with DMSO for hydroxyl radical was determined at 0.1 mM concentration; No result

| SMILES | inhibition [4] [%] | inhibition [6] [%] | inhibition [7] [%] | inhibition [8] [%] | inhibition [10] | inhibition [12] [%] | inhibition [13] [%] | inhibition [15] [%] | inhibition [19] [%] | inhibition [20] [%] | inhibition [21] [%] | RA [1] [%] | RA [2] [%] | RA [3] [%] | RA [5] [%] | Competition [9] [%] | Competition [11] [%] | RA [14] [%] | RA [17] [%] | inhibition in vivo at 5 µmol/kg [18] [%] | further results |
| --- | --- | --- | --- | --- | --- | --- | --- | --- | --- | --- | --- | --- | --- | --- | --- | --- | --- | --- | --- | --- | --- |
| Cc1ccc2ccc(=O)oc2c1 | 97.7 | 73.5 | 88.7 | 97.4 | 48.1% | 95.9 | 16.4 | 13.6 | 90.4 | 100 | 88.9 | 2.05 | 1.61 | 3.5 | 5.4 | 43.8 | 30.2 | 2.5 | 0.29 | 55.1 | inhibition [16]: No action |
| O=c1ccc2ccc(/C=N/N=C/c3ccc4ccc(=O)oc4c3)cc2o1 | 65.2 | 8.6 | 65.4 | 100 | 24.5% | 100 | 29.9 | 9.4 | 99.9 | 100 | 10.2 | 64.4 | 6.3 | 67.5 | 8.4 | 45.3 | 44.5 | 9.9 | 7.04 | 54 | inhibition [22]: 2.3% |
| CO/N=C/c1ccc2ccc(=O)oc2c1 | 100 |  | 99.9 | 56.9 |  | 94.1 | 16.6 | 25.5 | 100 | 100 | 100 | 13.9 | 14.5 | 11.9 | 11.6 | 90.2 | 85.6 | 9.8 | 12.7 | 31.1 | inhibition [22]: 21.9%; inhibition [23]: No action; inhibition [24]: No action |
| O=c1ccc2ccc(/C=N/O)cc2o1 | 100 | 37.2 | 98.5 | 98.7 | 37.4% | 100 | 28.5 | 20.3 | 70.7 | 77.7 | 98.8 | 9.7 | 3.52 | 12.8 | 7.1 | 50.8 | 43.4 | 4.8 | 0.29 | 58.6 | inhibition [16]: No action |
| COc1ccc2c(c1)c(CC(=O)O)c(C)n2C(=O)c1ccc(Cl)cc1 [INDOMETHACIN] |  |  |  |  |  |  |  |  |  |  |  |  |  |  |  |  |  |  |  | 47 |  |
| O=c1ccc2ccc(/C=N/Nc3ccccc3)cc2o1 | 88.7 | 77.4 | 99.9 | 80.1 |  | 96.8 | 30.6 | 31.4 |  | 64.5 | 71.2 | 78.7 | 48.9 | 79.1 | 64.4 | 65.5 | 15.4 | 56.2 | 36.2 | 35.2 | inhibition [22]: 5.9%; inhibition [25]: No action; inhibition [24]: No action |

Second part, led by results:

| inhibition [4] [%] | inhibition [6] [%] | inhibition [7] [%] | inhibition [8] [%] | inhibition [10] | inhibition [12] [%] | inhibition [13] [%] | inhibition [15] [%] | inhibition [19] [%] | inhibition [20] [%] | inhibition [21] [%] | SMILES | RA [1] [%] | RA [2] [%] | RA [3] [%] | RA [5] [%] | Competition [9] [%] | Competition [11] [%] | RA [14] [%] | RA [17] [%] | inhibition in vivo at 5 µmol/kg [18] [%] | further results |
| --- | --- | --- | --- | --- | --- | --- | --- | --- | --- | --- | --- | --- | --- | --- | --- | --- | --- | --- | --- | --- | --- |
| 83.4 | 54.3 | 97.6 | 73.9 | 90.5% | 95.4 | 10 | 22.6 | 35.3 | 95.9 | 100 | O=c1ccc2ccc(/C=N/c3ccccc3)cc2o1 | 14.3 | 13.5 | 11.6 | 10.6 | 89.6 | 72.2 | 10 | 12.9 | 42.5 | inhibition [22]: 26.1% |
| 98.9 | 8.6 | 99.1 | 96.6 | 32.8% | 98.9 | 22.7 | 12.6 | 83.4 | 100 | 89.7 | O=Cc1ccc2ccc(=O)oc2c1 | 16.2 | 2.49 | 12.8 | 7.1 | 35.2 | 33.9 | 3.5 | 1.47 | 29.3 | inhibition [16]: No action |
| 63.9 |  | 98 | 89.3 | No action |  | 28.5 | 5 | 12.7 | 95.9 | 15.1 | O=c1ccc2ccccc2o1 [COUMARIN] | 5.8 |  | 6.7 |  | 78 |  | 21 | 4.9 | 30.2 |  |
| 83.4 | 70.8 | 97.6 | 93.9 |  | 93.3 | 10 | 22.6 |  | 100 | 100 | CN/N=C/c1ccc2ccc(=O)oc2c1 | 92.4 | 84.8 | 87.3 | 86.7 |  | 97.3 | 80.7 | 69.7 | 54.7 | inhibition [22]: 6.9%; inhibition [25]: No action; Competition [26]: No results; inhibition [24]: No action |
| 100 |  | 99.4 | 63.1 |  | 92.3 | 31.3 | 29.3 | 41.1 | 95.4 | 100 | CC(O)Cc1ccc2ccc(=O)oc2c1 (stereo not given) | 22.9 | 18.4 | 25.6 | 16.8 | 81.8 | 80.7 | 13.3 | 14.5 | 18 | inhibition [22]: 7.5%; inhibition [23]: No action; inhibition [24]: No action |
